Source: US20230414771A1, “PREPARATION AND USE OF IMMUNOSTIMULATORY CONJUGATED COMPLEXES FOR TARGETED DELIVERY AND ACTIVATION” (YAFEI SHANGHAI BIOLOGY MEDICINE SCIENCE & TECHNOLOGY CO., …, priority 2020, published 2023)
Where a SMILES comes first, the peptide text is derived from it. The star is where a group is joined. Doxorubicin(3'-N) = COc1cccc2c1C(=O)c1c(O)c3c(c(O)c1C2=O)C[C@@](O)(C(=O)CO)C[C@@H]3O[C@H]1C[C@H](N*)[C@H](O)[C@H](C)O1; Hexanoyl(6-maleimido) = O=C1C=CC(=O)N1CCCCCC(=O)*

Legend:
M2 macrophages = experiment: MTT cytotoxicity on M2 macrophages; format: cell-based, C57BL/6 mice; settings: 48 hours, relative to C3
Description: The bilateral femur and tibiae of two C57BL/6 mice were taken out under aseptic conditions, and that metaphysis was cut off in a super-clean table. the marrow cavity was gently washed with serum-free MEM culture solution by a 5 mL sterile syringe for 4 times, and all cell suspensions were collect; Centrifuge at 1000 r/min for 10 min, discard the supernatant to obtain the cell precipitate, resuspend with an appropriate volume of serum-free MEM culture medium, repeatedly blow and homogenize, filter with a 40 uM filter screen, add 3 times the volume of erythrocyte lysate, and lyse on ice for 10 min; Centrifuge at 1000 r/min for 5 min, discard the supernatant to obtain the cell precipitate, wash with serum-free MEM culture medium for 2 times, and collect the cell precipitate; Resuspend the cells with MEM complete culture medium containing 10% FBS and 1% PS in volume fraction, and count the cells for subsequent differentiation; 100 uL, 20000 cells/well were inoculated into 96-well cell culture plate, 100 ng M-CSF was added into the culture medium for differentiation of M2 macrophages, and the cells were statically cultured at 37° C. in 5% C02 incubator, and induced to differentiate for 7 days, and the cell morphology was observed. […]
The cell survival rate and the 50% inhibitory concentration of the drug on the cells were calculated. […]

[1] = tested on: Human live cancer Hep G2 tumor tissue homogenate; experiment: Activation in Hep G2 tumor tissue homogenate; format: biochemical; settings: Hep G2 homogenate pH 6.0, 37° C., 1 mg/ml
Description: (§1) In the experiments of the present disclosure, 1 mg/ml of the sample compound was added to 100 μg of acidified tumor tissue homogenate (pH 6.0) at 37° C. The enzyme in the tumor tissue homogenate can cause the release of doxorubicin, and the reduction of compound and the increase of doxorubicin could be detected by HPLC to compare the activation efficiency of the drug in the tumor tissue.

[2] = tested on: Human renal carcinoma OS-RC-2 tumor tissue homogenate; experiment: Activation in OS-RC-2 tumor tissue homogenate; format: biochemical; settings: OS-RC-2 homogenate pH 6.0, 37° C., 1 mg/ml
Description: as §1

HSA = HSA (Homo sapiens, UniProt P02768); experiment: Binding of compounds with HSA (albumin coupling); settings: compound with HSA 3:1, 37° C. for 3 h
Description: HSA was dissolved in sterile water. The compound was combined with HSA at a ratio of 3:1 (4.8 umol/mL, 1.6 umol/mL), and reacted in a water bath at 37° C. for 3 h. The reaction solution was taken out, and the unbound compound was filtered by pressurized ultrafiltration membrane, diluted with normal saline and filtered for 3 times to obtain the semi-finished product.

CT26 tumor = CT26 tumor immune model, tumor suppression and CD8+ T cell analysis; format: in vivo, BALB/c mice
Description: • 1) CT26 cells were purchased from ATCC. […] The corresponding 5×10^6 cells were injected subcutaneously into the back of […] mice. After the size of tumors reached at least 100 mm^3, the mice were randomized into groups. Treatment was then initiated, with the day of treatment initiation being Day 1. • 3) The course of treatment. The drug was administered at an equimolar dose of 36 umol/kg. The control group was given normal saline. The drug was administered once a week for three week. • 4) Tumor CD8+ T cell analysis. Tumor tissue was homogenized, individual cells in the tumor were filtered, dissociated and washed twice with buffer, and then incubated with leukocyte common antigen CD45-PE and CD8-FITC-labeled antibodies for 1 hour at room temperature. The cells were washed twice with phosphate buffered saline containing 1% fetal bovine serum, and then the proportion of T lymphocyte antigen (CD8)-positive cells in leukocyte common antigen (CD45)-positive cells was analyzed by flow cytometry. An increase in the ratio indicates an increase in T lymphocytes and therefore an improvement in the immunity of the animal to the tumor. • 5) The grouping and test results are shown in Table 7.

[3] = drug 36 umol/kg once a week for three weeks, PD-1 antibody 5 mg/kg

Chain of HSA (P02768 25-609): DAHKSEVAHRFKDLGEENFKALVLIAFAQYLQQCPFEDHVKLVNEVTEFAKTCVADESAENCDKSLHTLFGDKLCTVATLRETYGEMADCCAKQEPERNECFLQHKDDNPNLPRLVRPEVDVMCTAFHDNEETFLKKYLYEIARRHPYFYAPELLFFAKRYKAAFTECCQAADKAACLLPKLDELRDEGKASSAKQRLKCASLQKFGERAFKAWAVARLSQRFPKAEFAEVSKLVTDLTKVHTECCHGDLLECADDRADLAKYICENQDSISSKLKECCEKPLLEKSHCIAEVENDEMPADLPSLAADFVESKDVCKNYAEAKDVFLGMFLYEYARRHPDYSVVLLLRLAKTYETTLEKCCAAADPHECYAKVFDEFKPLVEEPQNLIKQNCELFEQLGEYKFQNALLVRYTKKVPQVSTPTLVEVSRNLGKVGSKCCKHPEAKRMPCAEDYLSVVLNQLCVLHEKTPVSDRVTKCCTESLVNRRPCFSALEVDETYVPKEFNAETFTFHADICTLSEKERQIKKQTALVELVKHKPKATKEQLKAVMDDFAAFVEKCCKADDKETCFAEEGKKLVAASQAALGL

SMILES | cytotoxicity against M2 macrophages (FIG. 6) (M2 macrophages) | Compound activation ratios (%) [1] [%] | Compound activation ratios (%) [2] [%] | binding rates of HSA (HSA) [%] | CD8:CD45 (%) (CT26 tumor; CD8-positive among CD45-positive cells in tumor, flow cytometry) | therapeutic effect combined with PD-1, in words (CT26 tumor; combined with PD-1 versus single drug) | Tumor inhibition rate (%) Day 28 (CT26 tumor; [3]) [%] | Tumor volume (mm^3) Day 28 (CT26 tumor; [3]) [mm^3]
COc1cccc2c1C(=O)c1c(O)c3c(c(O)c1C2=O)C[C@@](O)(C(=O)CO)C[C@@H]3O[C@H]1C[C@H](NC(=O)[C@H](CC(C)C)NC(=O)[C@H](CC(N)=O)NC(=O)[C@H](C)NC(=O)[C@H](C)NC(=O)CCOCCOCCNC(=O)CCN2C(=O)C=CC2=O)[C@H](O)[C@H](C)O1 [QHL-087-DOX] | significantly improved cytotoxicity against M2 macrophages | – | – | – | – | – | – | –
COc1cccc2c1C(=O)c1c(O)c3c(c(O)c1C2=O)C[C@@](O)(C(=O)CO)C[C@@H]3O[C@H]1C[C@H](NC(=O)[C@H](CC(C)C)NC(=O)[C@H](CC(N)=O)NC(=O)[C@H](C)NC(=O)[C@H](C)NC(=O)CCCCCN2C(=O)C=CC2=O)[C@H](O)[C@H](C)O1 [EMC-AANL-DOX] ({Hexanoyl(6-maleimido)}-AANL-{Doxorubicin(3'-N)}) | – | 75.3 | 46.4 | 62 | 8.9 | improved compared with single drug | 66.9 | 624.5 ± 313.6
